In ChEMBL document CHEMBL1201862, “PubChem BioAssay data set” (2004):
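Tested at 5 concentrations; 48 h exposure; 96-well plates; endpoints linearly interpolated, else capped at highest concentration. GI50 marks 50% less growth.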 Active and inactive are the calls of the source. No stated cut-off is given here; in the data, active = GI50 up to about 1.1 µM and inactive = higher.

Experiments:
Test in all cases: growth of human tumour cells (NCI), 48 h
[1] = tested on: SK-OV-3
[2] = tested on: IGROV-1
[3] = tested on: NCI-H226
[4] = tested on: U-251
[5] = tested on: SK-MEL-5
[6] = tested on: CAKI-1
[7] = tested on: SK-MEL-2
[8] = tested on: KM12
[9] = tested on: SF-539
[10] = tested on: HOP-62
[11] = tested on: RXF 393
[12] = tested on: CCRF-CEM
[13] = tested on: HOP-92
[14] = tested on: NCI/ADR-RES
[15] = tested on: Malme-3M
[16] = tested on: NCI-H522
[17] = tested on: K562
[18] = tested on: SNB-75
[19] = tested on: 786-0
[20] = tested on: M14

Measured: GI50

CCCCSCC(NC(=O)/C=C/c1c(C)[nH]c(=O)[nH]c1=O)C(=O)OC (stereo not drawn)
inactive: [1] 45.4 µM | [2] 84.5 µM | [3] 43.9 µM | [4] 16.6 µM | [5] 64.9 µM | [6] 32.3 µM | [7] 25.2 µM | [8] 24.9 µM | [9] 61.2 µM | [10] 70.5 µM | [11] 56.5 µM | [12] 20 µM | [13] 36.1 µM | [14] 358 µM | [15] 15.7 µM | [16] 14.9 µM | [17] 44.1 µM | [18] 55.5 µM

CCOP(=O)(CCCC(O)CNc1nc(N)nc(Cl)c1/N=N/c1ccc(Cl)cc1)OCC (stereo not drawn)
inactive: [1] 3.19 µM | [19] 5.27 µM | [2] 11.9 µM | [3] 7.05 µM | [4] 8.57 µM | [5] 4.66 µM | [6] 3.02 µM | [7] 12.2 µM | [8] 11.2 µM | [9] 9.25 µM | [10] 9.89 µM | [11] 5.24 µM | [12] 3.21 µM | [13] 5.6 µM | [14] 10.4 µM | [15] 7.64 µM | [16] 5.69 µM | [17] 4.63 µM | [18] 3.29 µM

O=S(=O)(OI(O)CC(F)(F)F)C(F)(F)F
inactive: [1] > 100 µM | [19] > 100 µM | [20] > 100 µM | [2] > 100 µM | [3] > 100 µM | [4] > 100 µM | [5] > 100 µM | [6] > 100 µM | [7] > 100 µM | [8] > 100 µM | [9] > 100 µM | [10] > 100 µM | [11] > 100 µM | [12] > 100 µM | [13] > 100 µM | [14] > 100 µM | [16] > 100 µM | [17] > 100 µM | [18] > 100 µM

CC1CCC2(CC1)NC1=C(CC(C)CC1)C1=C2CC(C)CC1 (stereo not drawn)
inactive: [1] 38.8 µM | [19] 19.5 µM | [20] 18.5 µM | [2] 31.3 µM | [3] 16.7 µM | [4] 18.4 µM | [5] 12.1 µM | [6] 22 µM | [7] 21.8 µM | [8] 18.1 µM | [9] 22.1 µM | [11] 15.8 µM | [12] 18.1 µM | [13] 18.3 µM | [14] > 10 µM | [15] 26.9 µM | [16] 19.3 µM | [17] 17.2 µM | [18] 19.1 µM

O=C(O)C1C(Br)(c2ccccc2)C1(Br)c1ccccc1 (stereo not drawn)
inactive: [1] 27.5 µM | [19] 32.3 µM | [20] 48.2 µM | [2] 17.8 µM | [3] 27.2 µM | [4] 27.6 µM | [5] 28.8 µM | [6] 23.9 µM | [7] 37.5 µM | [8] 33.4 µM | [9] 52.7 µM | [10] 37 µM | [11] 19.5 µM | [13] 42.7 µM | [14] 52.4 µM | [15] 35.6 µM | [16] 17.6 µM | [17] 20.1 µM | [18] 35.3 µM

[N-]=[N+]=NCc1cccc(Nc2cc(=O)[nH]c(=O)[nH]2)c1
inactive: [1] > 100 µM | [19] > 100 µM | [20] > 100 µM | [2] > 100 µM | [3] > 100 µM | [5] > 100 µM | [6] > 100 µM | [7] > 100 µM | [8] > 100 µM | [9] > 100 µM | [10] > 100 µM | [11] > 100 µM | [12] > 100 µM | [13] 74 µM | [14] > 100 µM | [15] > 100 µM | [16] > 100 µM | [17] > 100 µM | [18] > 100 µM
